How the values were obtained:
Details in all cases: 72 h
HEL [1] = test system: HEL
Method in brief: (§1)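 Fifteen myeloid leukaemia cell lines were seeded in RPMI 1640 at a density titrated to the linear growth range. Each line went into 384-well plates with compounds acoustically pre-printed at five tenfold doses from 1 to 10,000 nM, in duplicate, and was incubated for 72 h at 37 °C with 5% CO2. Luminescent ATP viability was normalised to vehicle and to a positive control at 10 µM. The IC50 came from four-parameter log-logistic dose–response fits.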

NOMO-1 [2] = test system: NOMO-1
Method in brief: as §1

MV4-11 [3] = test system: MV4-11
Method in brief: as §1

ML-2 [4] = test system: ML-2
Method in brief: as §1

SHI-1 [5] = test system: SHI-1
Method in brief: as §1

LAMA-84 [6] = test system: LAMA-84
Method in brief: as §1

K-562 [7] = test system: K-562
Method in brief: as §1

KG-1 [8] = test system: KG-1
Method in brief: as §1

KCL-22 [9] = test system: KCL-22
Method in brief: as §1

KU-812 [10] = test system: KU-812
Method in brief: as §1

MOLM-13 [11] = test system: MOLM-13
Method in brief: as §1

Mono-Mac-6 [12] = test system: Mono-Mac-6
Method in brief: as §1

THP-1 [13] = test system: THP-1
Method in brief: as §1

HL-60 [14] = test system: HL-60
Method in brief: as §1

BV-173 [15] = test system: BV-173
Method in brief: as §1

HEL [16] = test: cell viability (% survival relative to DMSO control, bortezomib = 0%); higher = less cytotoxic
Method in brief: (§2)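 Percent survival is reported as the mean of duplicate wells. Cells from 10 AML and 5 CML lines were plated in 384-well plates containing compounds at 1, 10, 100, 1000 or 10000 nM and kept for 72 h at 37 °C in 5% CO2. Readout used CellTiter-Glo luminescence, scaled so that vehicle equals 100% and a 10 µM positive control equals 0%.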

NOMO-1 [17] = test: as above
Method in brief: as §2

MV4-11 [18] = test: as above
Method in brief: as §2

ML-2 [19] = test: as above
Method in brief: as §2

SHI-1 [20] = test: as above
Method in brief: as §2

LAMA-84 [21] = test: as above
Method in brief: as §2

K-562 [22] = test: as above
Method in brief: as §2

KG-1 [23] = test: as above
Method in brief: as §2

KCL-22 [24] = test: as above
Method in brief: as §2

KU-812 [25] = test: as above
Method in brief: as §2

MOLM-13 [26] = test: as above
Method in brief: as §2

Mono-Mac-6 [27] = test: as above
Method in brief: as §2

THP-1 [28] = test: as above
Method in brief: as §2

HL-60 [29] = test: as above
Method in brief: as §2

BV-173 [30] = test: as above
Method in brief: as §2

CCC(CC#N)OC(=O)N[C@@H](C)c1cccc(NC(=O)Nc2ccc(-c3cnco3)c(OC)c2)c1 (stereo in doubt) [AVN-944]
Details	IC50 (cell viability) [nM]
BV-173 [15]	118
HEL [1]	151
HL-60 [14]	182
K-562 [7]	55.8
KCL-22 [9]	62.8
KG-1 [8]	173
KU-812 [10]	94.9
LAMA-84 [6]	73.6
ML-2 [4]	66.8
MOLM-13 [11]	44.9
MV4-11 [3]	78.1
Mono-Mac-6 [12]	151
NOMO-1 [2]	451
SHI-1 [5]	137
THP-1 [13]	1900

cell viability [%]
Details	1 nM	10 nM	100 nM	1000 nM	10000 nM
BV-173 [30]	93.8	80.7	50.8	-0.621	-0.6
HEL [16]	101	119	70	4.65	2.7
HL-60 [29]	94.9	85.7	61.6	12.6	1.98
K-562 [22]	103	96.9	30.3	10.1	5.46
KCL-22 [24]	94.6	114	32.7	11.6	7.56
KG-1 [23]	108	99.4	74.1	27	20.2
KU-812 [25]	93.6	106	50.2	9.58	3.66
LAMA-84 [21]	92.5	102	43.9	19	12.5
ML-2 [19]	99.6	111	29.5	1.17	-0.0869
MOLM-13 [26]	130	121	8.35	1.17	0.252
MV4-11 [18]	92.1	96.4	35.8	-0.602	-0.425
Mono-Mac-6 [27]	90.2	90.5	60.2	16.4	8.67
NOMO-1 [17]	99.9	101	86.5	34	10.4
SHI-1 [20]	104	107	68.2	12.4	8.7
THP-1 [28]	101	99.7	101	65.3	43.1

O=C(Oc1ccc([N+](=O)[O-])cc1)N1CCC(C(O)(c2ccc3c(c2)OCO3)c2ccc3c(c2)OCO3)CC1 [JZL184]
Details	IC50 (cell viability) [nM]
BV-173 [15]	> 10000
HEL [1]	> 10000
HL-60 [14]	> 10000
K-562 [7]	> 10000
KCL-22 [9]	> 10000
KG-1 [8]	> 10000
KU-812 [10]	> 10000
LAMA-84 [6]	> 10000
ML-2 [4]	> 10000
MOLM-13 [11]	> 10000
MV4-11 [3]	> 10000
Mono-Mac-6 [12]	> 10000
NOMO-1 [2]	> 10000
SHI-1 [5]	> 10000
THP-1 [13]	> 10000

cell viability [%]
Details	1 nM	10 nM	100 nM	1000 nM	10000 nM
BV-173 [30]	95.2	96.5	90.7	92.9	69.4
HEL [16]	97.3	114	120	90.6	97.4
HL-60 [29]	96.9	98.8	105	103	101
K-562 [22]	92.8	110	106	87	95.7
KCL-22 [24]	90.8	108	112	105	92.3
KG-1 [23]	101	107	100	104	94
KU-812 [25]	101	102	112	90.5	85.8
LAMA-84 [21]	97	102	95.9	89.7	96.6
ML-2 [19]	102	112	114	104	98.9
MOLM-13 [26]	92.2	100	117	107	92.9
MV4-11 [18]	94.9	95.7	98.9	94.5	88.5
Mono-Mac-6 [27]	90.2	111	104	103	92.3
NOMO-1 [17]	101	99.5	102	102	95.2
SHI-1 [20]	110	97.9	129	103	90.7
THP-1 [28]	97.2	103	95.4	101	96.2

Nc1ccn([C@@H]2O[C@H](CO)[C@@H](O)C2(F)F)c(=O)n1 [Gemcitabine]
Details	IC50 (cell viability) [nM]
BV-173 [15]	2.13
HEL [1]	3.46
HL-60 [14]	8.03
K-562 [7]	16.4
KCL-22 [9]	6.87
KG-1 [8]	6.1
KU-812 [10]	3.3
LAMA-84 [6]	8.97
ML-2 [4]	3.12
MOLM-13 [11]	3.11
MV4-11 [3]	1.88
Mono-Mac-6 [12]	3.01
NOMO-1 [2]	5.7
SHI-1 [5]	4.79
THP-1 [13]	6.87

cell viability [%]
Details	1 nM	10 nM	100 nM	1000 nM	10000 nM
BV-173 [30]	83.3	-0.488	0.0466	0.053	-0.136
HEL [16]	105	1.42	-0.289	0.472	0.991
HL-60 [29]	104	38.9	-0.42	0.321	0.435
K-562 [22]	92.6	62.1	37.3	29.6	28.7
KCL-22 [24]	104	37.7	9.55	8.82	9.48
KG-1 [23]	105	33.4	9.8	11.5	9.39
KU-812 [25]	90.8	17.4	7.87	6.94	6.04
LAMA-84 [21]	95.6	45.7	5.22	4.64	4.9
ML-2 [19]	96.3	3.45	1.35	2.33	2.18
MOLM-13 [26]	96.6	2.43	0.0219	0.303	0.34
MV4-11 [18]	78.5	-0.0353	-0.464	0.602	0.268
Mono-Mac-6 [27]	95.1	2.34	1.01	0.852	0.24
NOMO-1 [17]	103	24.5	3.18	1.37	0.238
SHI-1 [20]	101	25.9	34.1	0.0306	-0.276
THP-1 [28]	110	44.4	30.5	23.5	20.4

OCC(CO)N[C@H]1C[C@](O)(CO)[C@@H](O)[C@H](O)[C@H]1O [Voglibose]
Details	IC50 (cell viability) [nM]
BV-173 [15]	> 10000
HEL [1]	> 10000
HL-60 [14]	> 10000
K-562 [7]	> 10000
KCL-22 [9]	> 10000
KG-1 [8]	> 10000
KU-812 [10]	> 10000
LAMA-84 [6]	> 10000
ML-2 [4]	> 10000
MOLM-13 [11]	> 10000
MV4-11 [3]	6470
Mono-Mac-6 [12]	> 10000
NOMO-1 [2]	> 10000
SHI-1 [5]	> 10000
THP-1 [13]	> 10000

cell viability [%]
Details	1 nM	10 nM	100 nM	1000 nM	10000 nM
BV-173 [30]	113	112	99.3	93.8	102
HEL [16]	124	107	97.3	99.1	118
HL-60 [29]	119	99.5	116	88.2	94.6
K-562 [22]	97.9	107	113	89.4	99.3
KCL-22 [24]	99.4	97.1	98	98.1	111
KG-1 [23]	95.6	102	107	95.6	106
KU-812 [25]	97.5	109	106	88.5	91.3
LAMA-84 [21]	102	105	99.6	94.6	103
ML-2 [19]	109	110	107	95.2	111
MOLM-13 [26]	117	94.4	127	70	70.1
MV4-11 [18]	106	107	113	84.7	52.7
Mono-Mac-6 [27]	102	96	109	86.7	91.8
NOMO-1 [17]	103	103	107	99.1	102
SHI-1 [20]	106	108	100	96	94.4
THP-1 [28]	108	96	93	101	99.1

OCCN1C[C@H](O)[C@@H](O)[C@H](O)[C@H]1CO [Miglitol]
Details	IC50 (cell viability) [nM]
BV-173 [15]	> 10000
HEL [1]	> 10000
HL-60 [14]	> 10000
K-562 [7]	> 10000
KCL-22 [9]	> 10000
KG-1 [8]	> 10000
KU-812 [10]	> 10000
LAMA-84 [6]	> 10000
ML-2 [4]	> 10000
MOLM-13 [11]	> 10000
MV4-11 [3]	> 10000
Mono-Mac-6 [12]	> 10000
NOMO-1 [2]	> 10000
SHI-1 [5]	> 10000
THP-1 [13]	> 10000

cell viability [%]
Details	1 nM	10 nM	100 nM	1000 nM	10000 nM
BV-173 [30]	90.6	110	89.7	94.6	105
HEL [16]	107	101	86.5	96.7	101
HL-60 [29]	86.9	95.7	93.1	105	87.2
K-562 [22]	97.8	98.5	83.5	108	102
KCL-22 [24]	91.5	108	96.6	95.9	106
KG-1 [23]	101	95.7	91.9	94.7	101
KU-812 [25]	101	103	86.9	98.3	96
LAMA-84 [21]	97	97.8	101	98.5	93.6
ML-2 [19]	95.4	104	89.3	96	105
MOLM-13 [26]	92.1	91.3	93	123	99.1
MV4-11 [18]	102	97	90.4	106	106
Mono-Mac-6 [27]	106	102	98.1	91.3	99.1
NOMO-1 [17]	98.2	102	100	93.7	98.5
SHI-1 [20]	102	109	105	92.8	103
THP-1 [28]	102	106	100	95.9	101
